28 compounds from patent publication US9371281B2, “Indole derivatives as inhibitors of histone deacetylase” (Pharmacyclics LLC, priority 2006, dated 2016) can be followed below.

Holding throughout (type): biochemical
For one assay, the target named is T1, HDAC8 (Homo sapiens, UniProt Q9BY41).
T1 sequence (Q9BY41 1-377): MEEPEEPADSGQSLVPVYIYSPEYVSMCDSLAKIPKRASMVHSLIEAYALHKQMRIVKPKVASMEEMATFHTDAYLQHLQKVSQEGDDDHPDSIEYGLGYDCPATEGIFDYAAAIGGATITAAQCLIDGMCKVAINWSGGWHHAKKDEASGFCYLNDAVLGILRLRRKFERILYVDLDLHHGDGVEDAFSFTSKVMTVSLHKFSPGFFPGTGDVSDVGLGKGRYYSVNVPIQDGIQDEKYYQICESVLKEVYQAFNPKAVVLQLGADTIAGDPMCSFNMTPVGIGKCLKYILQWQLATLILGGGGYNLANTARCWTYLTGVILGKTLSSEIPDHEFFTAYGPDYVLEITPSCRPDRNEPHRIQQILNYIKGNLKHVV
The experiment in a line: Inhibition of HDAC8 deacetylase activity in vitro.

For a further assay, the target named is HDAC1 (Homo sapiens, UniProt Q13547). As to the kind of experiment: Inhibition of HDAC1 deacetylase activity in vitro. Particulars: ratio of IC50 values.
For another assay, the target named is HDAC2 (Homo sapiens, UniProt Q92769). As to the kind of experiment: Inhibition of HDAC2 deacetylase activity in vitro. Particulars: ratio of IC50 values.
For a further assay, the target named is HDAC3 (Homo sapiens, UniProt O15379). The experiment in a line: Inhibition of HDAC3 deacetylase activity in vitro. Particulars: ratio of IC50 values.
Another assay concerns the target HDAC6 (Homo sapiens, UniProt Q9UBN7). The experiment in a line: Inhibition of HDAC6 deacetylase activity in vitro. The following applies: ratio of IC50 values.
The target of the next assay is HDAC10 (Homo sapiens, UniProt Q969S8). As to the kind of experiment: Inhibition of HDAC10 deacetylase activity in vitro. The following applies: ratio of IC50 values.
Sequence of HDAC10 (Q969S8 whole entry): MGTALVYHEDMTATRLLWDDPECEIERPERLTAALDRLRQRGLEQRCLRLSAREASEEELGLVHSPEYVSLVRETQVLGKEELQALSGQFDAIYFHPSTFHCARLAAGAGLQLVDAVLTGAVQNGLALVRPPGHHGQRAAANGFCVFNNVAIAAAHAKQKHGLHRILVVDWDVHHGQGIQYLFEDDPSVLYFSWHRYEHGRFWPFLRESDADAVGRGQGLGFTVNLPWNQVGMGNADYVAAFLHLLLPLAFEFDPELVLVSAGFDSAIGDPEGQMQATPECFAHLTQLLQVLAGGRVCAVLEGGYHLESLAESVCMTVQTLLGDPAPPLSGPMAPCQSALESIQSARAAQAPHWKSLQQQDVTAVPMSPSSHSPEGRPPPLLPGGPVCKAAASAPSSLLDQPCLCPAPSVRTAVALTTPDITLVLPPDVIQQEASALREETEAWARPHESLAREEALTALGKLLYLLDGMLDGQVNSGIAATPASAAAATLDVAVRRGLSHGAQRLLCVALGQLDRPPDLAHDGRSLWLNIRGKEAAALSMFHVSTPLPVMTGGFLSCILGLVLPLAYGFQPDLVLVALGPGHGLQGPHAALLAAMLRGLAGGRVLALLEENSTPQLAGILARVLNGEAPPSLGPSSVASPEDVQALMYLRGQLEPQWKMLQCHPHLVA

Sequence of HDAC1 (Q13547 whole entry): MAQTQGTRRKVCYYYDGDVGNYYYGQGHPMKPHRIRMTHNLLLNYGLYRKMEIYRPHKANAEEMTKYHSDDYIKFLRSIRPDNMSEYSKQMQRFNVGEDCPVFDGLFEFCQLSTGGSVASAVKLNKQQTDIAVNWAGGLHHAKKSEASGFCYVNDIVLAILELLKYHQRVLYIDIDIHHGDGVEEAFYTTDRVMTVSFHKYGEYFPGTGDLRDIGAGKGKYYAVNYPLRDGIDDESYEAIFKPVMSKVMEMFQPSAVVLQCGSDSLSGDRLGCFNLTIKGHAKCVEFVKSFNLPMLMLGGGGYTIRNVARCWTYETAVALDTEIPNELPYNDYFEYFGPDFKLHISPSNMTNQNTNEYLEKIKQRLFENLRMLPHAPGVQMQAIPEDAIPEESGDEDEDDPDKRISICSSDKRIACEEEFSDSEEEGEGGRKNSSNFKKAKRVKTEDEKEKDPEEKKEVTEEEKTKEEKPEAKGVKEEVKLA
Sequence of HDAC6 (Q9UBN7 whole entry): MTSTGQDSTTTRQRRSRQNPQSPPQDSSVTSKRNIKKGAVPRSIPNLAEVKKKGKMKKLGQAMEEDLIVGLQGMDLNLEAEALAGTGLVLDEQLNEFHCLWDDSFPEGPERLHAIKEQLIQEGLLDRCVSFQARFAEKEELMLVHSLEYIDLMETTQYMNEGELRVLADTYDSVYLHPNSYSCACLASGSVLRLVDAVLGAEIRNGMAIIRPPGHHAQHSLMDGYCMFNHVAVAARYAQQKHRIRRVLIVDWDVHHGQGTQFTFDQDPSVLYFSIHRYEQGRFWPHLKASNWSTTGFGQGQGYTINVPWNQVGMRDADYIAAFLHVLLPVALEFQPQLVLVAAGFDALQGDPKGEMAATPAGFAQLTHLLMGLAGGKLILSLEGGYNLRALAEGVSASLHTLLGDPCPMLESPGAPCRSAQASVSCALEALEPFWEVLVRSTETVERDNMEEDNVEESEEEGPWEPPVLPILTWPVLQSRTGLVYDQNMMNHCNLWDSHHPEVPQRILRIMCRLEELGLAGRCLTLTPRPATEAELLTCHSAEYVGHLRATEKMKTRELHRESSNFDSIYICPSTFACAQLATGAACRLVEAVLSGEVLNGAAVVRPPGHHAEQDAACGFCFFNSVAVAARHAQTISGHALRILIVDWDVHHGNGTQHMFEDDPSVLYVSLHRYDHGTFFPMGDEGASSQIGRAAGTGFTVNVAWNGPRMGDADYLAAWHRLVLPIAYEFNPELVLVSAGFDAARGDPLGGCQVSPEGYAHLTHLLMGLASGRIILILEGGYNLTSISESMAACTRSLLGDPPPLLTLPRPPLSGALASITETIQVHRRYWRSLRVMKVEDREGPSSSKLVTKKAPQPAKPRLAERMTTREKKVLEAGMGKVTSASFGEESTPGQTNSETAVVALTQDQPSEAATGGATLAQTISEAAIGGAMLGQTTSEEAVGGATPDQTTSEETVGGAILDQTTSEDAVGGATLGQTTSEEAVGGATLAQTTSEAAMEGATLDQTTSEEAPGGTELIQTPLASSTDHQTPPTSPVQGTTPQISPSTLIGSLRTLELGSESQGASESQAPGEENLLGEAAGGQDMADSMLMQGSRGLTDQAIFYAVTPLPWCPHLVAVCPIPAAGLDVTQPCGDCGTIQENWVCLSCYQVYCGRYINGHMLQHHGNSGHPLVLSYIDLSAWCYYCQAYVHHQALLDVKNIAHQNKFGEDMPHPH
Sequence of HDAC3 (O15379 whole entry): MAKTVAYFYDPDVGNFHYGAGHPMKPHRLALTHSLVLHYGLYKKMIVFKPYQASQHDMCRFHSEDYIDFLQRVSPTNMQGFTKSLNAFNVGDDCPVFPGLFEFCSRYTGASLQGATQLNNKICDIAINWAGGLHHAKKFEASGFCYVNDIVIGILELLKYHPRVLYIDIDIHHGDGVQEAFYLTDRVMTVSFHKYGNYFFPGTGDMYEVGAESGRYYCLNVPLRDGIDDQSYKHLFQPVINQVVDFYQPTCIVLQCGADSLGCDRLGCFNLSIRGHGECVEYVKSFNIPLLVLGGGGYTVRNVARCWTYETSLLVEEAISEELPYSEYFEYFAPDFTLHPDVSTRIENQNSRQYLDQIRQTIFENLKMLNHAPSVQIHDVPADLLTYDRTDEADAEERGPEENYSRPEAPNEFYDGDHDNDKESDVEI
Sequence of HDAC3 (Q9Y618 389-480 partner limits assumed): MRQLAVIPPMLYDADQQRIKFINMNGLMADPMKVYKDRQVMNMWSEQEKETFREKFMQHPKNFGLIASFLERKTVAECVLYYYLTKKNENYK
Sequence of HDAC2 (Q92769 whole entry): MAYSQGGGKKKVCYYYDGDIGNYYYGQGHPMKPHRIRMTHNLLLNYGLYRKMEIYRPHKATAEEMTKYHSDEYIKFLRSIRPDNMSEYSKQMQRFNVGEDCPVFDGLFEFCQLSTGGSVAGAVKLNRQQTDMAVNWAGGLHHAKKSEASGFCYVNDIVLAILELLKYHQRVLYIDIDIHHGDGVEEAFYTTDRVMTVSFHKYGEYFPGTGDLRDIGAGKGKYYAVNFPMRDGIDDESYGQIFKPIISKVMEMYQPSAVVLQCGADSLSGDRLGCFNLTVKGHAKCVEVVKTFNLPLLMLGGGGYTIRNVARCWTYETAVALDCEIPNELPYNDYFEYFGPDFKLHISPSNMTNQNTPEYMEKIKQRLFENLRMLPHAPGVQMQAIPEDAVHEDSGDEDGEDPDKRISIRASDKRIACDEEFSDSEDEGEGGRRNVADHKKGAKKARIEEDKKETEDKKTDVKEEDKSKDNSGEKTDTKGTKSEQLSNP

In general, IC50 refers to the concentration at which inhibition is half-maximal. Read a high IC50 as weaker potency. The compound `O=C(NO)c1ccc2ccn(Cc3ccc(Cl)c(Cl)c3)c2c1` [Compound 1, 1-(3,4-dichloro-phenylmethyl)-1H-indole-6-carboxylic acid hydroxyamide] came in with a half-inhibitory concentration (IC50) against HDAC8 of less than 100 nM. For the same compound, the HDAC-1/HDAC-8 result on HDAC1 is “A (A >10 and <100)”.
As to `Cc1ccccc1Cn1ccc2ccc(C(=O)NO)cc21` [Compound 2, 1-(2-methyl-phenylmethyl)-1H-indole-6-carboxylic acid hydroxyamide], on HDAC8, the 50% inhibitory concentration (IC50) was less than 100 nM. In addition, on HDAC1, the HDAC-1/HDAC-8 result was “A (A >10 and <100)”.
The compound `COc1cc(Cn2ccc3ccc(C(=O)NO)cc32)cc(OC)c1OC` [Compound 3, 1-(3,4,5-trimethoxy-phenylmethyl)-1H-indole-6-carboxylic acid hydroxyamide] showed an IC50 against HDAC8 greater than 100 nM. The HDAC-1/HDAC-8 entry on HDAC1 was “A (A >10 and <100)”.
With `O=C(NO)c1ccc2ccn(Cc3cccc(F)c3)c2c1` [Compound 4, 1-(3-fluoro-phenylmethyl)-1H-indole-6-carboxylic acid hydroxyamide], on HDAC8, the IC50 is less than 100 nM. Further, the HDAC-1/HDAC-8 entry on HDAC1 was “A (A >10 and <100)”.
With `Cc1cccc(Cn2ccc3ccc(C(=O)NO)cc32)c1` [Compound 5, 1-(3-methyl-phenylmethyl)-1H-indole-6-carboxylic acid hydroxyamide], the IC50 at HDAC8 was less than 100 nM. Further, the HDAC-1/HDAC-8 entry at HDAC1 is “A (A >10 and <100)”.
As to `O=C(NO)c1ccc2ccn(Cc3ccccc3)c2c1` [Compound 6, 1-(benzyl)-1H-indole-6-carboxylic acid hydroxyamide], on HDAC8, the IC50 is less than 100 nM. Moreover, at HDAC1, the HDAC-1/HDAC-8 entry was “A (A >10 and <100)”.
`COc1cc(Cn2ccc3ccc(C(=O)NO)cc32)cc(OC)c1` [Compound 7, 1-(3,5-dimethoxy-phenylmethyl)-1H-indole-6-carboxylic acid hydroxyamide] came in with an IC50 against HDAC8 of less than 100 nM. The HDAC-1/HDAC-8 result at HDAC1 was “A (A >10 and <100)”.
Compound `CC(c1ccccc1)n1ccc2ccc(C(=O)NO)cc21` (stereo not shown) [Compound 8, 1-(1-methyl-1-phenylmethyl)-1H-indole-6-carboxylic acid hydroxyamide] yielded an IC50 on HDAC8 of less than 100 nM. Also, the HDAC-1/HDAC-8 entry at HDAC1 is “A (A >10 and <100)”.
The compound `O=C(NO)c1ccc2ccn(Cc3ccc(F)cc3)c2c1` [Compound 9, 1-(4-fluoro-phenylmethyl)-1H-indole-6-carboxylic acid hydroxyamide] displayed an IC50 on HDAC8 of less than 100 nM. The HDAC-1/HDAC-8 entry on HDAC1 is “A (A >10 and <100)”.
Compound `O=C(NO)c1ccc2ccn(Cc3ccccc3F)c2c1` [Compound 10, 1-(2-fluoro-phenylmethyl)-1H-indole-6-carboxylic acid hydroxyamide] had an IC50 on HDAC8 of less than 100 nM. The HDAC-1/HDAC-8 result at HDAC1 is “A (A >10 and <100)”.
`O=C(NO)c1ccc2ccn(Cc3ccccc3Cl)c2c1` [Compound 11, 1-(2-chloro-phenylmethyl)-1H-indole-6-carboxylic acid hydroxyamide]: the IC50 against HDAC8 was less than 100 nM. Besides, at HDAC1, the HDAC-1/HDAC-8 entry is “A (A >10 and <100)”.
Take `COc1cccc(Cn2ccc3ccc(C(=O)NO)cc32)c1` [Compound 12, 1-(3-methoxy-phenylmethyl)-1H-indole-6-carboxylic acid hydroxyamide]: at HDAC8, the IC50 was less than 100 nM. For the same compound, the HDAC-1/HDAC-8 result at HDAC1 is “A (A >10 and <100)”.
For the compound `O=C(NO)c1ccc2ccn(Cc3ccc4ccccc4c3)c2c1` [Compound 13, 1-(naphth-2-ylmethyl)-1H-indole-6-carboxylic acid hydroxyamide], the half-maximal inhibitory concentration (IC50) at HDAC8 was less than 100 nM. Moreover, the HDAC-1/HDAC-8 result on HDAC1 was “A (A >10 and <100)”.
Consider `O=C(NO)c1ccc2ccn(CCCc3ccccc3)c2c1` [Compound 14, 1-(3-phenylpropyl)-1H-indole-6-carboxylic acid hydroxyamide], for which, at HDAC8, the IC50 is less than 100 nM. In addition, the HDAC-1/HDAC-8 result at HDAC1 was “A (A >10 and <100)”.
Take `O=C(NO)c1ccc2ccn(CC3CCCCC3)c2c1` [Compound 15, 1-(cyclohexylmethyl)-1H-indole-6-carboxylic acid hydroxyamide]: the half-maximal inhibitory concentration (IC50) on HDAC8 is less than 100 nM. Also, the HDAC-1/HDAC-8 entry at HDAC1 is “A (A >10 and <100)”.
For the compound `O=C(NO)c1ccc2ccn(CC=Cc3ccccc3)c2c1` [Compound 16, 1-[1-(phenyl)-propen-3-yl]-1H-indole-6-carboxylic acid hydroxyamide], on HDAC8, the half-maximal inhibitory concentration (IC50) was less than 100 nM. In addition, at HDAC1, the HDAC-1/HDAC-8 entry is “B (B >100)”.
For `O=C(NO)c1ccc2ccn(Cc3ccc(OC(F)(F)F)cc3)c2c1` [Compound 17, 1-[4-(trifluoromethoxy)-phenylmethyl]-1H-indole-6-carboxylic acid hydroxyamide], the IC50 at HDAC8 is less than 100 nM. In addition, the HDAC-1/HDAC-8 result on HDAC1 was “B (B >100)”.
As for `O=C(NO)c1ccc2ccn(Cc3ccc(Cl)cc3)c2c1` [Compound 18, 1-(4-chloro-phenylmethyl)-1H-indole-6-carboxylic acid hydroxyamide], on HDAC8, the concentration for half-maximal inhibition (IC50) was less than 100 nM. Further, at HDAC1, the HDAC-1/HDAC-8 entry was “B (B >100)”.
At HDAC8, `O=C(NO)c1ccc2ccn(Cc3ccc4nonc4c3)c2c1` [Compound 19, 1-(benzo[2,1,3]oxadiazol-5-ylmethyl)-1H-indole-6-carboxylic acid hydroxyamide] showed an IC50 of less than 100 nM. On HDAC1, the HDAC-1/HDAC-8 entry was “B (B >100)”.
The compound `Cc1ccc(Cn2ccc3ccc(C(=O)NO)cc32)cc1` [Compound 20, 1-(4-methyl-phenylmethyl)-1H-indole-6-carboxylic acid hydroxyamide] displayed an IC50 against HDAC8 of less than 100 nM. The HDAC-1/HDAC-8 entry at HDAC1 was “B (B >100)”.
For `COc1ccc(Cn2ccc3ccc(C(=O)NO)cc32)cc1F` [Compound 21, 1-(3-fluoro-4-methoxy-phenylmethyl)-1H-indole-6-carboxylic acid hydroxyamide], in that order: less than 100 nM and “B (B >100)”.
At HDAC8, `O=C(NO)c1ccc2ccn(Cc3ccc(OC(F)F)cc3)c2c1` [Compound 22, 1-[4-(difluoromethoxy)-phenylmethyl]-1H-indole-6-carboxylic acid hydroxyamide] returned a half-maximal inhibitory concentration (IC50) of less than 100 nM. At HDAC1, the HDAC-1/HDAC-8 result is listed as “B (B >100)”.
The compound `Cn1cc(Cc2ccc([N+](=O)[O-])cc2)c2cc(C(=O)NO)ccc21` [Compound 34, 1-methyl-3-(4-nitro-phenylmethyl)-1H-indole-5-carboxylic acid hydroxyamide] showed a half-maximal inhibitory concentration (IC50) against HDAC8 of less than 100 nM. The HDAC-1/HDAC-8 entry on HDAC1 was “A (A >10 and <100)”. Moreover, the HDAC-2/HDAC-8 result on HDAC2 is recorded as “B (B >100)”. For the same compound, the HDAC-3/HDAC-8 result at HDAC3 was “A (A >10 and <100)”. The HDAC-6/HDAC-8 result at HDAC6 was “A (A >10 and <100)”. For the same compound, on HDAC10, the HDAC-10/HDAC-8 entry is given as “B (B >100)”.
In turn, `CCn1cc(Cc2ccccc2)c2cc(C(=O)NO)ccc21` [Compound 35, 1-ethyl-3-(phenylmethyl)-1H-indole-5-carboxylic acid hydroxyamide] displayed an IC50 at HDAC8 of less than 100 nM. For the same compound, the HDAC-1/HDAC-8 entry on HDAC1 is “A (A >10 and <100)”.
In turn, `Cn1cc(Cc2ccc(NC(=O)c3ccccc3)cc2)c2cc(C(=O)NO)ccc21` [Compound 36, 1-methyl-3-[4-(phenylcarbonylamino)-phenylmethyl]-1H-indole-5-carboxylic acid hydroxyamide] gave an IC50 on HDAC8 of less than 100 nM. Besides, the HDAC-1/HDAC-8 entry at HDAC1 was “A (A >10 and <100)”.
Regarding `CC(C)n1cc(Cc2ccccc2)c2cc(C(=O)NO)ccc21` [Compound 37, 1-isopropyl-3-(phenylmethyl)-1H-indole-5-carboxylic acid hydroxyamide], the IC50 against HDAC8 is less than 100 nM. Besides, the HDAC-1/HDAC-8 entry on HDAC1 is “A (A >10 and <100)”.
The compound `Cn1cc(Cc2ccc(N)cc2)c2cc(C(=O)NO)ccc21` [Compound 38, 1-methyl-3-(4-amino-phenylmethyl)-1H-indole-5-carboxylic acid hydroxyamide] returned an IC50 at HDAC8 of less than 100 nM. Moreover, on HDAC1, the HDAC-1/HDAC-8 entry is “A (A >10 and <100)”.
As to `Cn1cc(Cc2ccc(F)cc2)c2cc(C(=O)NO)ccc21` [Compound 39, 1-methyl-3-(4-fluoro-phenylmethyl)-1H-indole-5-carboxylic acid hydroxyamide], the IC50 against HDAC8 is less than 100 nM. In addition, the HDAC-1/HDAC-8 entry on HDAC1 is given as “B (B >100)”. The HDAC-2/HDAC-8 entry on HDAC2 is reported as “B (B >100)”. For the same compound, the HDAC-3/HDAC-8 result on HDAC3 was “A (A >10 and <100)”. The HDAC-6/HDAC-8 result on HDAC6 is “A (A >10 and <100)”. On HDAC10, the HDAC-10/HDAC-8 result is recorded as “B (B >100)”.
